This is an account of results in PubChem BioAssay AID248 (DTP/NCI, 2004).

Where “and” joins values, the source holds several entries; their conditions need not be identical. Equal values may be shown once. Toxic doses and inconclusive results are not listed.

The assay relates to L1210 leukemia ip in BDF1 mice, survival T/C. In words: NCI In Vivo Anticancer Drug Screen. Data for tumor model L1210 Leukemia (intraperitoneal) in B6D2F1 (BDF1) mice. The following applies: endpoint: mean survival time, higher = longer survival. Put shortly:
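Tumor cells were implanted, animals were treated, and survival was followed. The result divides the treated measurement by the vehicle-control measurement.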

The mark [1] stands for this setting: dose: 100.0 mg/kg/injection, schedule: Q04DX002 (ip), vehicle: Klucel (hydroxypropylcellulose) (HPC).
Where [2] appears, read: dose: 100.0 mg/kg/injection, schedule: Q04DX003 (ip), vehicle: saline with Tween-80.
The mark [3] stands for this setting: dose: 200.0 mg/kg/injection, schedule: Q04DX003 (ip), vehicle: saline with Tween-80.
Where [4] appears, read: dose: 400.0 mg/kg/injection, schedule: Q04DX003 (ip), vehicle: saline with Tween-80.
Setting [5] is: dose: 50.0 mg/kg/injection, schedule: Q01DX001 (ip), vehicle: saline.
[6] abbreviates: dose: 100.0 mg/kg/injection, schedule: Q01DX001 (ip), vehicle: saline.
Where [7] appears, read: dose: 200.0 mg/kg/injection, schedule: Q01DX001 (ip), vehicle: saline.
Setting [8] is: dose: 400.0 mg/kg/injection, schedule: Q01DX001 (ip), vehicle: saline.
The mark [9] stands for this setting: dose: 50.0 mg/kg/injection, schedule: Q01DX009 (ip), vehicle: saline with Tween-80.
Where [10] appears, read: dose: 200.0 mg/kg/injection, schedule: Q04DX002 (ip), vehicle: Klucel (hydroxypropylcellulose) (HPC).
Where [11] appears, read: dose: 400.0 mg/kg/injection, schedule: Q04DX002 (ip), vehicle: Klucel (hydroxypropylcellulose) (HPC).
Setting [12] is: dose: 100.0 mg/kg/injection, schedule: Q01DX009 (ip), vehicle: saline with Tween-80.
Setting [13] is: dose: 200.0 mg/kg/injection, schedule: Q01DX009 (ip), vehicle: saline with Tween-80.
Where [14] appears, read: dose: 400.0 mg/kg/injection, schedule: Q01DX009 (ip), vehicle: saline with Tween-80.

As for `[CH3][Sn]([CH3])([CH3])[c]1ccc(-c2ccccc2)cc1`, the T/C was 92 % of control (dose: 25.0 mg/kg/injection, schedule: Q04DX002 (ip), vehicle: Klucel (hydroxypropylcellulose) (HPC)); 95 % of control (dose: 50.0 mg/kg/injection, schedule: Q04DX002 (ip), vehicle: Klucel (hydroxypropylcellulose) (HPC)); 100 % of control under setting [1].
For `O=C1C=C2C=CCCC2CC1` (stereo not drawn), the T/C by setting is: (dose: 75.0 mg/kg/injection, schedule: Q01DX001 (ip), vehicle: other) 104 % of control; (dose: 150.0 mg/kg/injection, schedule: Q01DX001 (ip), vehicle: other) 98 % of control; (dose: 300.0 mg/kg/injection, schedule: Q01DX001 (ip), vehicle: other) 114 % of control.
Turning to `COc1cc(C=Nc2ccc(C(=O)O)cc2)ccc1N(CCCl)CCCl`, the T/C is 107 % of control (dose: 6.0 mg/kg/injection, schedule: Q01DX001 (ip), vehicle: carboxymethylcellulose (CMC)); 109 % of control (dose: 12.0 mg/kg/injection, schedule: Q01DX015 (ip), vehicle: carboxymethylcellulose (CMC)); 112 % of control (dose: 12.5 mg/kg/injection, schedule: Q01DX001 (ip), vehicle: carboxymethylcellulose (CMC)).
Take `O=C(c1ccccc1)C1(c2ccccc2)SC1(C(=O)c1ccccc1)c1ccccc1` (stereo not drawn): the T/C under setting [2] is 92 % of control, the T/C under setting [3] is 91 % of control and the T/C under setting [4] is 87 % of control.
Consider `COC(=O)C(C)CSCc1ccccc1` (stereo not drawn), for which the T/C is 108 % of control (dose: 100.0 mg/kg/injection, schedule: Q04DX002 (ip), vehicle: saline) and 89 % of control (dose: 400.0 mg/kg/injection, schedule: Q04DX002 (ip), vehicle: saline).
With `CC(C)(C)C1CCCC(=O)CC1` (stereo not drawn), the T/C under setting [5] was 102 % of control.
Turning to `Cc1nc(C#N)c(N)o1`, the T/C was 103 % of control (dose: 5.0 mg/kg/injection, schedule: Q01DX001 (ip), vehicle: saline); 103 % of control (dose: 10.0 mg/kg/injection, schedule: Q01DX001 (ip), vehicle: saline); 98 % of control (dose: 20.0 mg/kg/injection, schedule: Q01DX001 (ip), vehicle: saline).
For the compound `O=C(CC(C(=O)c1ccccc1)c1ccccc1)c1ccccc1` (stereo not drawn), the T/C runs as follows: (dose: 100.0 mg/kg/injection, schedule: Q01DX009 (ip), vehicle: Klucel (hydroxypropylcellulose) (HPC)) 93 % of control and 89 % of control; (dose: 200.0 mg/kg/injection, schedule: Q01DX009 (ip), vehicle: Klucel (hydroxypropylcellulose) (HPC)) 103 % of control; (dose: 400.0 mg/kg/injection, schedule: Q01DX009 (ip), vehicle: Klucel (hydroxypropylcellulose) (HPC)) 94 % of control and 103 % of control.
As to `O=c1[nH][nH]c(=O)c2c(C3OC(CO)C(O)C3O)[nH]nc12` (stereo not drawn), the T/C (dose: 100.0 mg/kg/injection, schedule: Q01DX005 (ip), vehicle: saline) was 90 % of control and the T/C (dose: 200.0 mg/kg/injection, schedule: Q01DX005 (ip), vehicle: saline) was 97 % of control.
Regarding `[Cl][Tl]`, the T/C under setting [6] was 94 % of control; the T/C (dose: 100.0 mg/kg/injection, schedule: Q04DX003 (ip), vehicle: saline) is 106 % of control; the T/C under setting [7] was 101 % of control; the T/C (dose: 200.0 mg/kg/injection, schedule: Q04DX003 (ip), vehicle: saline) was 90 % of control; the T/C under setting [8] is 94 % of control.
Consider `CC(C)CC(CC(C)C)NC(C)COC(=O)c1ccc(N)cc1` (stereo not drawn), for which, where the note is “dose: 75.0 mg/kg/injection, schedule: Q01DX001 (ip), vehicle: saline”, the T/C is 96 % of control.
On to `Cc1cc(C)n2nc(N)nc2n1`, for which the T/C was 101 % of control (dose: 100.0 mg/kg/injection, schedule: Q01DX001 (ip), vehicle: carboxymethylcellulose (CMC)); 95 % of control (dose: 200.0 mg/kg/injection, schedule: Q01DX001 (ip), vehicle: carboxymethylcellulose (CMC)); 95 % of control (dose: 400.0 mg/kg/injection, schedule: Q01DX001 (ip), vehicle: carboxymethylcellulose (CMC)).
Consider `Cc1c2ccccc2cc2c1ccc1cccc(F)c12`, for which the T/C is 107 % of control (dose: 12.5 mg/kg/injection, schedule: Q01DX009 (ip), vehicle: saline with Tween-80); 104 % of control (dose: 25.0 mg/kg/injection, schedule: Q01DX009 (ip), vehicle: saline with Tween-80); 96 % of control under setting [9].
As for `CCC(=O)Nc1ccccc1C`, the T/C is, setting by setting: under setting [1], 92 % of control; under setting [10], 103 % of control; under setting [11], 110 % of control.
On to `CS(=O)(=O)N(CC(=O)O)Cc1ccc(Cl)c(Cl)c1`, for which the T/C was 100 % of control (dose: 100.0 mg/kg/injection, schedule: Q01DX009 (ip), vehicle: other); 97 % of control (dose: 100.0 mg/kg/injection, schedule: Q04DX003 (ip), vehicle: other); 104 % of control (dose: 200.0 mg/kg/injection, schedule: Q01DX009 (ip), vehicle: other); 97 % of control (dose: 200.0 mg/kg/injection, schedule: Q04DX003 (ip), vehicle: other); 96 % of control (dose: 400.0 mg/kg/injection, schedule: Q01DX009 (ip), vehicle: other); 95 % of control (dose: 400.0 mg/kg/injection, schedule: Q04DX003 (ip), vehicle: other).
For `C[C@@]1(C(=O)O)CC2C=CC1C2` (stereo partly drawn), the T/C reads like this: under setting [1], 96 % of control; under setting [10], 96 % of control; under setting [11], 93 % of control.
Consider `[Cl][Pt+2][Cl].[NH-]C(CCCN)C(=O)O.[NH-]C(CCCN)C(=O)O` (stereo not drawn), for which the T/C is 103 % of control (dose: 50.0 mg/kg/injection, schedule: Q04DX003 (ip), vehicle: saline with Tween-80); 104 % of control and 115 % of control under setting [2]; 97 % of control and 102 % of control under setting [3].
With `N=C(CC(=O)Nc1ccccc1)c1ccccc1`, the T/C under setting [5] was 101 % of control, the T/C under setting [6] was 96 % of control, the T/C under setting [7] is 102 % of control and the T/C under setting [8] is 101 % of control.
As for `CCOC(=O)CSC`, the T/C runs as follows: under setting [12], 99 % of control; under setting [2], 101 % of control; under setting [13], 94 % of control; under setting [3], 106 % of control; under setting [14], 100 % of control; under setting [4], 98 % of control.
On to `O=C(Nc1ccc(C2=NCCN2)cc1)c1ccc(C(=O)Nc2ccc(C3=NCCN3)cc2)nc1`, for which the T/C (dose: 1.0 mg/kg/injection, schedule: Q01DX Z (ip), vehicle: saline) was 108 % of control; the T/C (dose: 2.0 mg/kg/injection, schedule: Q01DX Z (ip), vehicle: saline) was 119 % of control; the T/C (dose: 15.0 mg/kg/injection, schedule: Q01DX Z (ip), vehicle: carboxymethylcellulose (CMC)) was 228 % of control; the T/C (dose: 16.0 mg/kg/injection, schedule: Q01DX Z (ip), vehicle: saline) was 221 % of control; the T/C (dose: 30.0 mg/kg/injection, schedule: Q01DX Z (oral), vehicle: saline) is 104 % of control; the T/C (dose: 60.0 mg/kg/injection, schedule: Q01DX Z (ip), vehicle: carboxymethylcellulose (CMC)) was 117 % of control. The T/C (dose: 60.0 mg/kg/injection, schedule: Q01DX Z (oral), vehicle: saline) was 98 % of control; the T/C (dose: 120.0 mg/kg/injection, schedule: Q01DX Z (oral), vehicle: saline) is 106 % of control; the T/C (dose: 240.0 mg/kg/injection, schedule: Q01DX Z (oral), vehicle: saline) is 97 % of control; the T/C (dose: 480.0 mg/kg/injection, schedule: Q01DX Z (oral), vehicle: saline) was 98 % of control; the T/C (dose: 960.0 mg/kg/injection, schedule: Q01DX Z (oral), vehicle: saline) is 97 % of control.
For `CCOC(=O)CNC1=NCCO1`, the T/C is 91 % of control under setting [12], 96 % of control under setting [13] and 93 % of control under setting [14].
Turning to `O=S(=O)(NC(CCl)=NC1CCCCC1)c1ccccc1`, the T/C is, setting by setting: under setting [1], 89 % of control; under setting [10], 100 % of control; under setting [11], 104 % of control.
On to `O=C(O)CNC(=O)C(Br)Cc1ccccc1` (stereo not drawn), for which the T/C was 96 % of control under setting [12], 89 % of control under setting [13] and 89 % of control under setting [14].
Turning to `O=C(NNc1cccc(Cl)c1)C(O)C(O)C(O)C(O)CO` (stereo not drawn), the T/C runs as follows: under setting [9], 107 % of control; under setting [12], 98 % of control; under setting [13], 115 % of control.
